Results on one compound are retold here after patent US12552792B2, “Solid forms of an FGFR inhibitor and processes for preparing the same” (Incyte Corporation, priority 2018, dated 2026).

The nature of this data set: Competitive slurry experiments with mixed Compound 1 polymorphs (XRPD). As to conditions: for Solid State Form after competitive slurry: saturated Form I solution + 5 mg each of Form I through Form XXVI, stirred overnight, XRPD; for Competitive slurry result (form by XRPD): DCM/MeOH (9:1, 0.6 mL), 5 mg each of Form I through Form XXVI. In kind it is physicochemical. On the procedure:
To evaluate the transformation of solid forms of Compound 1, competitive slurry experiments were performed as follows. To the saturated solution of Form I in the solvent as listed in Table 11 was added Form I (5 mg), then 5 mg each of Form II through Form XXVI.
The slurry was stirred overnight, filtered and analyzed by XRPD.
A competitive slurry experiment was conducted in dichloromethane/methanol (9/1) according to the procedure in Table 12. The mixture of forms (Form I through Form XXVI) was converted to Form II after 15 min as shown by XRPD at various time points including 15 mins, 1 h, 18 h and 3 days, which indicated the Form II was consistently obtained.

Take `CCN1C(=O)N(c2c(F)c(OC)cc(OC)c2F)Cc2cnc3[nH]c(CN4CCOCC4)cc3c21` [Compound 1, 3-(2,6-difluoro-3,5-dimethoxyphenyl)-1-ethyl-8-(morpholin-4-ylmethyl)-1,3,4,7-tetrahydro-2H-pyrrolo[3′,2′:5,6]pyrido[4,3-d]pyrimidin-2-one]: the “Solid State Form after competitive slurry” value is, setting by setting: (Acetonitrile (1.7 mL)) “Form I”; (Ethanol (1.7 mL)) “Form I”; (Iso-propanol (1.7 mL)) “Form I”. In addition, the “Competitive slurry result (form by XRPD)” value (stirred for 15 min) is given as “Form II”, the “Competitive slurry result (form by XRPD)” value (stirred for 60 min) was “Form II”, the “Competitive slurry result (form by XRPD)” value (stirred for 18 h) is given as “Form II” and the “Competitive slurry result (form by XRPD)” value (stirred for 3 days) was “Form II”.
